Assay results published in US10457684B2, “[1,2,3]triazolo[4,5-d]pyrimidine derivatives” (Hoffmann-La Roche Inc., priority 2016, dated 2019).

Key:
[1] = molecular target: human CB2 receptor (Homo sapiens (Human), UniProt P34972); experiment: Radioligand binding assay, [3H]-CP-55,940, membranes of HEK cells expressing human CNR2; conditions: 2.6 nM [3H]-CP-55,940, HEK cell membranes, 1 h at 30° C.
Method: (§1) Radioligand Binding Assay
(§2) The affinity of the compounds of the invention for cannabinoid receptors was determined using recommended amounts of membrane preparations (PerkinElmer) of human embryonic kidney (HEK) cells expressing the human CNR1 or CNR2 receptors in conjunction with 1.5 or 2.6 nM [3H]-CP-55,940 (Perkin Elmer) as radioligand, respectively. Binding was performed in binding buffer (50 mM Tris, 5 mM MgCl2, 2.5 mM EDTA, and 0.5% (wt/vol) fatty acid free BSA, pH 7.4 for CB1 receptor and 50 mM Tris, 5 mM MgCl2, 2.5 mM EGTA, and 0.1% (wt/vol) fatty acid free BSA, pH 7.4 for CB2 receptor) in a total volume of 0.2 mL for 1 h at 30° C. shaking. The reaction was terminated by rapid filtration through microfiltration plates coated with 0.5% polyethylenimine (UniFilter GF/B filter plate; Packard). Bound radioactivity was analyzed for Ki using nonlinear regression analysis (Activity Base, ID Business Solution, Limited), with the Kd values for [^3H]CP55,940 determined from saturation experiments.
The compounds according to formula (I) have an activity in the above assay (Ki) particularly of 0.5 nM to 10 μM, more particularly of 0.5 nM to 3 μM and most particularly of 0.5 nM to 100 nM.

[2] = molecular target: human CB1 receptor (Homo sapiens (Human), UniProt P21554); experiment: Radioligand binding assay, [3H]-CP-55,940, membranes of HEK cells expressing human CNR1; conditions: 1.5 nM [3H]-CP-55,940, HEK cell membranes, 1 h at 30° C.
Sequence of human CB1 receptor (P21554 whole entry): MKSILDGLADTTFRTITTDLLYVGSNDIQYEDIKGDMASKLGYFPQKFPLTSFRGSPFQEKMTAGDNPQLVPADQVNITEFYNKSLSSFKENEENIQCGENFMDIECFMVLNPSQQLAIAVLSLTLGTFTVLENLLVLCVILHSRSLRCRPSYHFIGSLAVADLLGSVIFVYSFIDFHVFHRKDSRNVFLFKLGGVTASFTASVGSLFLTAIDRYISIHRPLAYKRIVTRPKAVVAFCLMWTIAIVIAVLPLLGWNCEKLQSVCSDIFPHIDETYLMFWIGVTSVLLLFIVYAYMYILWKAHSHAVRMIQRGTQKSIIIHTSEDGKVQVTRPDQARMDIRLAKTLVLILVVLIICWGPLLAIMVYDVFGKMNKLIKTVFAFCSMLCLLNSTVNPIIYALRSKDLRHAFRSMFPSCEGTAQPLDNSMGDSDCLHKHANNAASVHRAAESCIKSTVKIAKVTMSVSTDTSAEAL
Method: as §1, §2

Sequence of human CB2 receptor (P34972 whole entry): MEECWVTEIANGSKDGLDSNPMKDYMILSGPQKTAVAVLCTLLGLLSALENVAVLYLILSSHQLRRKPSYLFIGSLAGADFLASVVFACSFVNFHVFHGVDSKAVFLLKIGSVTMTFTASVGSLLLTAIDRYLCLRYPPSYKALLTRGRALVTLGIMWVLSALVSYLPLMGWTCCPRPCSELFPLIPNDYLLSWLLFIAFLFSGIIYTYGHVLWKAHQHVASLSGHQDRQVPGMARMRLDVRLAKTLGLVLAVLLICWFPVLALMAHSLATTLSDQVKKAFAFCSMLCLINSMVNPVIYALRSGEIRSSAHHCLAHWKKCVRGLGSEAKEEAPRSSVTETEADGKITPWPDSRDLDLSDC

| Structure (SMILES) | Ki [1] | Ki [2] |
| --- | --- | --- |
| Cc1nonc1Cn1nnc2c(N3CCC4(C3)N=N4)nc(C(C)(C)C)nc21 [Example 1, 5-tert-Butyl-3-[(4-methyl-1,2,5-oxadiazol-3-yl)methyl]-7-(1,2,5-triazaspiro[2.4]hept-1-en-5-yl)-3H-[1,2,3]triazolo[4,5-d]pyrimidine] | 16.1 nM | 2960 nM |
| FC(F)(F)c1ccccc1Cn1nnc2c(N3CCC4(C3)N=N4)nc(C(F)(F)c3ccccc3)nc21 [Example 2, 5-[Difluoro(phenyl)methyl]-7-(1,2,5-triazaspiro[2.4]hept-1-en-5-yl)-3-{[2-(trifluoromethyl)phenyl]methyl}-3H-[1,2,3]triazolo[4,5-d]pyrimidine] | 0.8 nM | 993 nM |
| CC(C)(C)c1nc(N2CCC3(C2)N=N3)c2nnn(Cc3ccccc3Cl)c2n1 [Example 3, 5-tert-Butyl-3-[(2-chlorophenyl)methyl]-7-(1,2,5-triazaspiro[2.4]hept-1-en-5-yl)-3H-[1,2,3]triazolo[4,5-d]pyrimidine] | 3.3 nM | 321 nM |
| CC(C)(C)c1nc(N2CCC(F)(F)C2)c2nnn(Cc3ccccc3C3(C(F)(F)F)N=N3)c2n1 [Example 4, 5-tert-Butyl-7-(3,3-difluoropyrrolidin-1-yl)-3-({2-[3-(trifluoromethyl)-3H-diaziren-3-yl]phenyl}methyl)-3H-[1,2,3]triazolo[4,5-d]pyrimidine] | 4.2 nM | 488 nM |
| C#Cc1ccccc1Cn1nnc2c(N3CCC4(C3)N=N4)nc(C(C)(C)C)nc21 [Example 5, 5-tert-Butyl-3-[(2-ethynylphenyl)methyl]-7-(1,2,5-triazaspiro[2.4]hept-1-en-5-yl)-3H-[1,2,3]triazolo[4,5-d]pyrimidine] | 5.6 nM | 132 nM |
| FC(F)(c1ccccc1)c1nc(N2CCC3(C2)N=N3)c2nnn(Cc3ccccc3Cl)c2n1 [Example 6, 3-[(2-Chlorophenyl)methyl]-5-[difluoro(phenyl)methyl]-7-(1,2,5-triazaspiro[2.4]hept-1-en-5-yl)-3H-[1,2,3]triazolo[4,5-d]pyrimidine] | 9.9 nM | 799 nM |
| Cc1nonc1Cn1nnc2c(N3CCC4(C3)N=N4)nc(C(F)(F)c3ccccc3)nc21 [Example 7, 5-[Difluoro(phenyl)methyl]-3-[(4-methyl-1,2,5-oxadiazol-3-yl)methyl]-7-(1,2,5-triazaspiro[2.4]hept-1-en-5-yl)-3H-[1,2,3]triazolo[4,5-d]pyrimidine] | 45.5 nM | 5410 nM |
| CC(C)(C)c1nc(N2CCC(F)(F)C2)c2nnn(Cc3ccc(C4(C(F)(F)F)N=N4)cc3Cl)c2n1 [Example 8, 5-tert-Butyl-3-({2-chloro-4-[3-(trifluoromethyl)-3H-diaziren-3-yl]phenyl}methyl)-7-(3,3-difluoropyrrolidin-1-yl)-3H-[1,2,3]triazolo[4,5-d]pyrimidine] | 55.6 nM | > 10000 nM |
| C#CCCC1(CCNC(=O)c2nonc2Cn2nnc3c(N4CCC(F)(F)C4)nc(C(C)(C)C)nc32)N=N1 [Example 9, 4-{[5-tert-Butyl-7-(3,3-difluoropyrrolidin-1-yl)-3H-[1,2,3]triazolo[4,5-d]pyrimidin-3-yl]methyl}-N-{2-[3-(but-3-yn-1-yl)-3H-diaziren-3-yl]ethyl}-1,2,5-oxadiazole-3-carboxamide] | 1160 nM | > 10000 nM |
| C#CCCC1(CCNC(=O)c2nonc2Cn2nnc3c(N4CC[C@H](O)C4)nc(C(C)(C)C)nc32)N=N1 [Example 10, 4-({5-tert-Butyl-7-[(3S)-3-hydroxypyrrolidin-1-yl]-3H-[1,2,3]triazolo[4,5-d]pyrimidin-3-yl}methyl)-N-{2-[3-(but-3-yn-1-yl)-3H-diaziren-3-yl]ethyl}-1,2,5-oxadiazole-3-carboxamide] | 200 nM | > 10000 nM |
| C#Cc1ccccc1Cn1nnc2c(N3CCC4(C3)N=N4)nc(C(F)(F)c3ccccc3)nc21 [Example 11, 5-[Difluoro(phenyl)methyl]-3-[(2-ethynylphenyl)methyl]-7-(1,2,6-triazaspiro[2.4]hept-1-en-6-yl)triazolo[4,5-d]pyrimidine] | 19 nM | 465 nM |
| C#Cc1cccc(C2(C(F)(F)F)N=N2)c1Cn1nnc2c(N3CCC(F)(F)C3)nc(C(F)(F)c3ccccc3)nc21 [Example 12, 5-[Difluoro(phenyl)methyl]-7-(3,3-difluoropyrrolidin-1-yl)-3-[[2-ethynyl-6-[3-(trifluoromethyl)diazirin-3-yl]phenyl]methyl]triazolo[4,5-d]pyrimidine] | 31 nM | 3390 nM |
| C#Cc1cccc(C2(C(F)(F)F)N=N2)c1Cn1nnc2c(N3CCC(F)(F)C3)nc(C(C)(C)C)nc21 [Example 13, 5-tert-Butyl-7-(3,3-difluoropyrrolidin-1-yl)-3-[[2-ethynyl-6-[3-(trifluoromethyl)diazirin-3-yl]phenyl]methyl]triazolo[4,5-d]pyrimidine] | 9 nM | 147 nM |
| C#Cc1cccc(C2(C(F)(F)F)N=N2)c1Cn1nnc2c(N3CC[C@H](O)C3)nc(C(C)(C)C)nc21 [Example 14, (3S)-1-[5-tert-Butyl-3-[[2-ethynyl-6-[3-(trifluoromethyl)diazirin-3-yl]phenyl]methyl]triazolo[4,5-d]pyrimidin-7-yl]pyrrolidin-3-ol] | 12 nM | > 10000 nM |
| C#Cc1cccc(C2(C(F)(F)F)N=N2)c1Cn1nnc2c(N3CC[C@H](O)C3)nc(C(F)(F)c3ccccc3)nc21 [Example 15, (3S)-1-[5-[Difluoro(phenyl)methyl]-3-[[2-ethynyl-6-[3-(trifluoromethyl)diazirin-3-yl]phenyl]methyl]triazolo[4,5-d]pyrimidin-7-yl]pyrrolidin-3-ol] | 58 nM | > 10000 nM |
